Experimental data from patent US20060069132A1, “Azolecarboxamide herbicides” (priority 2004, published 2006).

Tests used:
large crabgrass [1] = experiment: Test B pre-/postemergence herbicide test; type: in vivo, Digitaria sanguinalis; conditions: for Crabgrass, Large plant response rating: postemergence
In short: (§1)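 Evaluation is visual, comparing treated with control plants on a scale where 0 means no effect and 100 means full control. Treatments were preemergence, or postemergence on seedlings 2–18 cm tall, and held 13–15 days in the greenhouse.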

corn = experiment: Test B pre-/postemergence herbicide test; type: in vivo, Zea mays; conditions: for Corn plant response rating: postemergence
In short: as §1

rice [2] = experiment: Test B flooded paddy test; type: in vivo, Oryza sativa; conditions: 1000 g ai/ha, scale 0 to 100 (0 no effect, 100 complete control)
In short: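 Each value is a visual 0–100 response rating taken against controls 13 to 15 days after treatment in the greenhouse. Plants received formulated chemical postemergence at the 1- to 4-leaf stage or, in flooded paddy, at the 2-leaf stage.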

[3] = tested on: small flower umbrella sedge; experiment: Test B flooded paddy test; type: in vivo, Cyperus difformis; conditions: 1000 g ai/ha, scale 0 to 100 (0 no effect, 100 complete control)
In short: (§2)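 Postemergence plants were sprayed with formulated test chemicals at 2 to 18 cm height (1- to 4-leaf stage); paddy species were grown to the 2-leaf stage. After 13 to 15 days in a greenhouse, injury was rated visually against untreated controls on a 0–100 scale (0 = no effect, 100 = complete control).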

blackgrass = experiment: Test B postemergence herbicide test; type: in vivo, Alopecurus myosuroides; conditions: postemergence
In short: as §2

giant foxtail [4] = experiment: Test A pre-/postemergence herbicide test; type: in vivo, Setaria faberi
In short: (§3)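 Greenhouse injury scoring (0–100, complete control = 100) at approximately ten days follows simultaneous pre- and postemergence application. Soil received a directed spray after seeding; seedlings of 2–10 cm at the one- to two-leaf stage were sprayed to runoff.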

morningglory [5] = experiment: Test A pre-/postemergence herbicide test; type: in vivo, Ipomoea spp.
In short: as §3

barnyardgrass [6] = experiment: Test B flooded paddy test; type: in vivo, Echinochloa crus-galli; conditions: 1000 g ai/ha, scale 0 to 100 (0 no effect, 100 complete control)
In short: as §2

large crabgrass [7] = experiment: Test A pre-/postemergence herbicide test; type: in vivo, Digitaria sanguinalis
In short: as §3

ducksalad = experiment: Test B flooded paddy test; type: in vivo, Heteranthera limosa; conditions: 1000 g ai/ha, scale 0 to 100 (0 no effect, 100 complete control)
In short: as §2

redroot pigweed = experiment: Test A pre-/postemergence herbicide test; type: in vivo, Amaranthus retroflexus
In short: as §3

pigweed = experiment: Test B pre-/postemergence herbicide test; type: in vivo, Amaranthus retroflexus; conditions: for Pigweed plant response rating: postemergence
In short: as §1

velvetleaf [8] = experiment: Test A pre-/postemergence herbicide test; type: in vivo, Abutilon theophrasti
In short: as §3

velvetleaf [9] = experiment: Test B pre-/postemergence herbicide test; type: in vivo, Abutilon theophrasti; conditions: for Velvetleaf plant response rating: postemergence
In short: as §1

cocklebur = experiment: Test B pre-/postemergence herbicide test; type: in vivo, Xanthium strumarium; conditions: for Cocklebur plant response rating: postemergence
In short: (§4)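 Seeds were planted and treated preemergence with compounds formulated in a non-phytotoxic solvent mixture containing surfactant, while plants at the 1- to 4-leaf stage (2 to 18 cm) received postemergence sprays. Flooded paddy plants were grown to the 2-leaf stage. After 13 to 15 days in a greenhouse, injury was visually rated 0–100 against untreated controls.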

rice [10] = experiment: Test B pre-/postemergence herbicide test; type: in vivo, Oryza sativa; conditions: 0 = no effect, 100 = complete control, preemergence
In short: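 Plants compared with untreated controls 13–15 days post-treatment and given a visual 0–100 injury score. Applications: preemergence to seeds; postemergence at 1- to 4-leaf (2–18 cm); paddy species flooded, 2-leaf stage. Vehicle non-phytotoxic, surfactant included.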

wild oat = experiment: Test B postemergence herbicide test; type: in vivo, Avena fatua; conditions: postemergence
In short: (§5)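 Scale 0–100: zero equals no visible effect, 100 complete control, judged by eye relative to controls. Timing: 13 to 15 days in greenhouse post-treatment. Growth stage at spraying: two leaves (paddy) or one to four leaves, 2–18 cm (postemergence).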

Surinam grass = experiment: Test B pre-/postemergence herbicide test; type: in vivo, Urochloa decumbens; conditions: for Surinam Grass plant response rating: postemergence
In short: as §1

barnyardgrass [11] = experiment: Test A pre-/postemergence herbicide test; type: in vivo, Echinochloa crus-galli
In short: as §3

lambsquarters = experiment: Test B pre-/postemergence herbicide test; type: in vivo, Chenopodium album; conditions: postemergence
In short: as §1

barnyardgrass [12] = experiment: Test B pre-/postemergence herbicide test; type: in vivo, Echinochloa crus-galli; conditions: for Barnyardgrass plant response rating: postemergence
In short: as §4

wheat = experiment: Test B postemergence herbicide test; type: in vivo, Triticum aestivum; set-up: key to Wheat plant response rating: 0 = no effect, 100 = complete control; conditions: postemergence
In short: as §5

morningglory [13] = experiment: Test B pre-/postemergence herbicide test; type: in vivo, Ipomoea coccinea; conditions: for Morningglory plant response rating: postemergence
In short: as §4

giant foxtail [14] = experiment: Test B pre-/postemergence herbicide test; type: in vivo, Setaria faberi; conditions: for Foxtail, Giant plant response rating: postemergence
In short: as §1

[15] = 125 g ai/ha, 0 = no effect, 100 = complete control, preemergence
[16] = 500 g ai/ha, visual rating, 0 = no effect, 100 = complete control, preemergence
[17] = 125 g ai/ha, visual rating, scale 0 (no effect) to 100 (complete control)
[18] = 500 g ai/ha, scale 0 to 100, 0 is no effect, 100 is complete control
[19] = Postemergence, 500 g ai/ha, 0 to 100 scale, 0 no effect, 100 complete control
[20] = Postemergence, 2000 g ai/ha, 0 to 100 scale, 0 no effect, 100 complete control
[21] = Preemergence, 2000 g ai/ha, visual rating, 0 to 100 scale (0 no effect, 100 complete control)
[22] = preemergence, 500 g ai/ha, visual injury, 0 to 100 scale (0 no effect, 100 complete control)

CCn1nc(C(C)(C)C)cc1C(=O)Nc1cc(C(=O)N(C)C)c(F)cc1F [Compound 270]
30: Morningglory plant response rating (morningglory [5]; [21]) | Velvetleaf plant response rating (velvetleaf [8]; [22]) | Plant response rating, Barnyardgrass (barnyardgrass [11]; [20])
0: Crabgrass, Large plant response rating (0 to 100 scale) (large crabgrass [1]; [15]) | Crabgrass, Large plant response rating (large crabgrass [1]; [17]) | Crabgrass, Large plant response rating (large crabgrass [1]; [18]) | Corn plant response rating (0 to 100 scale) (corn; [15]) | Corn plant response rating (corn; [17]) | Blackgrass plant response rating (blackgrass; [17]) | Foxtail, Giant plant response rating (giant foxtail [4]; [19]) | Plant response rating, Foxtail, Giant (giant foxtail [4]; [20]) | Morningglory plant response rating (morningglory [5]; [22]) | Crabgrass, Large plant response rating (large crabgrass [7]; [19]) | Plant response rating, Pigweed (redroot pigweed; [20]) | Pigweed plant response rating (0 to 100 scale) (pigweed; [15]) | Pigweed plant response rating (pigweed; [17]) | Pigweed plant response rating (pigweed; [18]) | Velvetleaf plant response rating (velvetleaf [9]; [17]) | Velvetleaf plant response rating (velvetleaf [9]; [18]) | Cocklebur plant response rating (0 to 100 scale) (cocklebur; [15]) | Plant response rating, Cocklebur (cocklebur; [16]) | Cocklebur plant response rating (cocklebur; [17]) | Cocklebur plant response rating (cocklebur; [18]) | Rice plant response rating (0 to 100 scale) (rice [10]; 125 g ai/ha) | Oat, Wild plant response rating (wild oat; [17]) | Oat, Wild plant response rating (wild oat; [18]) | Surinam Grass plant response rating (0 to 100 scale) (Surinam grass; [15]) | Surinam Grass plant response rating (Surinam grass; [17]) | Barnyardgrass plant response rating (barnyardgrass [11]; [19]) | Lambsquarters plant response rating (lambsquarters; [17]) | Barnyardgrass plant response rating (0 to 100 scale) (barnyardgrass [12]; [15]) | Barnyardgrass plant response rating (barnyardgrass [12]; [17]) | Barnyardgrass plant response rating (barnyardgrass [12]; [18]) | Wheat plant response rating (wheat; [17]) | Wheat plant response rating (wheat; [18]) | Morningglory plant response rating (0 to 100 scale) (morningglory [13]; [15]) | Plant response rating, Morningglory (morningglory [13]; [16]) | Morningglory plant response rating (morningglory [13]; [17]) | Foxtail, Giant plant response rating (0 to 100 scale) (giant foxtail [14]; [15]) | Foxtail, Giant plant response rating (giant foxtail [14]; [17]) | Foxtail, Giant plant response rating (giant foxtail [14]; [18])
5: Crabgrass, Large plant response rating (large crabgrass [7]; [22])
25: Plant response rating, Velvetleaf (velvetleaf [8]; [20])
50: Plant response rating, Corn (corn; [16]) | Barnyardgrass plant response rating (barnyardgrass [6]) | Velvetleaf plant response rating (0 to 100 scale) (velvetleaf [9]; [15]) | Plant response rating, Barnyardgrass (barnyardgrass [12]; [16]) | Plant response rating, Foxtail, Giant (giant foxtail [14]; [16])
85: Pigweed plant response rating (redroot pigweed; [21])
20: Plant response rating, Crabgrass, Large (large crabgrass [1]; [16]) | Blackgrass plant response rating (blackgrass; [18]) | Foxtail, Giant plant response rating (giant foxtail [4]; [22]) | Morningglory plant response rating (morningglory [5]; [19]) | Plant response rating, Morningglory (morningglory [5]; [20]) | Pigweed plant response rating (redroot pigweed; [19]) | Plant response rating, Surinam Grass (Surinam grass; [16])
15: Pigweed plant response rating (redroot pigweed; [22]) | Velvetleaf plant response rating (velvetleaf [8]; [19])
55: Velvetleaf plant response rating (velvetleaf [8]; [21])
35: Crabgrass, Large plant response rating (large crabgrass [7]; [21])
90: Barnyardgrass plant response rating (barnyardgrass [11]; [21])
60: Sedge, Umbrella plant response rating [3] | Plant response rating, Rice (rice [10]; 500 g ai/ha, visual rating) | Barnyardgrass plant response rating (barnyardgrass [11]; [22])
10: Corn plant response rating (corn; [18]) | Plant response rating, Crabgrass, Large (large crabgrass [7]; [20]) | Surinam Grass plant response rating (Surinam grass; [18]) | Lambsquarters plant response rating (lambsquarters; [18]) | Morningglory plant response rating (morningglory [13]; [18])
70: Rice plant response rating (rice [2]) | Foxtail, Giant plant response rating (giant foxtail [4]; [21]) | Ducksalad plant response rating (ducksalad) | Plant response rating, Velvetleaf (velvetleaf [9]; [16])
